For one experiment, the system named is PDE4. In words: PDE4 Cellular CNG Assay. Format: cell-based. To be noted: Activity at 10 μM; HEK293 cells stably expressing the CNG channel. The source says:
Compounds may be screened for functional potency in in vitro cellular assays for their ability to inhibit the activity of phosphodiesterase (PDE) enzymes. A commercial membrane potential assay, Molecular Device's membrane potential assay kit, was modified and utilized to measure the inhibitory activity of compounds on PDE isoforms in living cells. The cellular assay utilizes genetically engineered cyclic nucleotide-gated (CNG) channels as cyclic-AMP (cAMP) sensors. On binding cAMP these ion channels open, allowing the flow of cations across the plasma membrane. CNG channel activity can be monitored by measuring Ca^2+ influx in cell populations. The influx of Ca causes a change in membrane potential that is measured by voltage sensitive dyes. PDE inhibitors prevent the degradation of cAMP that is generated by adenylyl cyclases that are activated upon stimulation of G protein-coupled receptors (GPCR) linked to the cAMP pathway. In brief, Molecular Device's membrane potential dye was added to HEK293 cells stably expressing the CNG channel and incubated for 2 hours at room temperature. Test compounds were then added to the cells and incubated for 15 minutes. A GPCR agonist was then added to the cells to stimulate the cAMP pathway and incubated for 45 minutes. Fluorescent measurements were then conducted with either the Molecular Devices Acquest or Analyst. PDE inhibitors will inhibit the degradation of cAMP and cause an increase in fluorescent signal. Roflumilast and Rolipram are the positive controls used in the assay.

Another experiment has as its target T1, PDE4B (Homo sapiens, UniProt Q07343).
T1 construct: hexa-histidine (His6) (N); made in house
Description: PDE4 IMAP Assay. To be noted: 2 h; Activity at 10 μM; catalytic domain of PDE4B; read-out: PDE IMAP Assay. In kind it is biochemical. The source says: Compounds may be screened for functional potency in in vitro biochemical assays for their ability to inhibit the activity of phosphodiesterase (PDE) enzymes. A commercial PDE assay, Molecular Device's PDE IMAP assay, was modified and utilized to measure the inhibitory activity of compounds on PDE isoforms. The IMAP technology is based on the high affinity binding of phosphate by immobilized metal (MIII) coordination complexes on nanoparticles. This IMAP “binding reagent” complexes with phosphate groups on the nucleotide monophosphates generated in the reaction. Such binding causes a change in the rate of the molecular motion of the nucleotide, and results in an increase in the fluorescence polarization value observed for the fluorescent label attached to the substrate. PDE inhibitors prevent the generation of nucleotide monophosphates and the subsequent increase in polarization value observed for the fluorescent label attached to the substrate. The catalytic domain of PDE4B was fused to an amino-terminus hex-histadine affinity tag and purified. PDE4B enzyme was incubated with compounds for 10 minutes. Fluorescently labeled cyclic AMP substrates were then added to the PDE enzyme mix and incubated for 2 hours at room temperature. IMAP binding reagent was then added to the enzyme mix, incubated for 10-30 minutes and fluorescent polarization of the fluorescently labeled substrate was read either with the Perkin Elmer Viewlux or Molecular Devices Acquest or Analyst. Roflumilast and Rolipram are the positive controls used in the assay.

The test system of another experiment is recombinant human PDE4. As to conditions: reported value; read-out: IC50 with respect to inhibiting recombinant human PDE4; cited from earlier work.

In general, IC50 refers to the midpoint of a concentration-inhibition curve.

Each structure is given as a SMILES string.

T1 sequence (Q07343 330-659 limits assumed, species assumed): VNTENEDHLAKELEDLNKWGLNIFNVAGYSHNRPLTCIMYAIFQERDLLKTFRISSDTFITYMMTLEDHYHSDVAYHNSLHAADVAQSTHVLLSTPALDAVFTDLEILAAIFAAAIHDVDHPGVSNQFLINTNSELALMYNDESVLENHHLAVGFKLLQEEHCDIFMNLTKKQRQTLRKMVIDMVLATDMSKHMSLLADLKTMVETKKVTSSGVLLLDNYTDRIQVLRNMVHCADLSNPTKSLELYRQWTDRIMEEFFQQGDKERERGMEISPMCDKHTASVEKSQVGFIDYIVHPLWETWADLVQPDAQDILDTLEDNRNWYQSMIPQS

In the case of `Cc1c(Cc2ccccc2)c(N2CCNCC2)n2c(nc3ccccc32)c1C#N` [Example 25, 2-Benzyl-3-methyl-1-piperazin-1-yl-benzo[4,5]imidazo[2-a]pyridine-4-carbonitrile], the “Cellular CNG Assay” value with PDE4 is recorded as “− (−indicates Activity < 50% at 10 μM)”. Moreover, the inhibition at 10 µM on PDE4B was not below 50%.

`CC(C)CCn1c(=O)c2ccccc2n2c(CN3CCN(c4ncccn4)CC3)nnc12` [Example 26, 4-Isopentyl-1-((4-(pyrimidin-2-yl)piperazin-1-yl)methyl)-[1,2,4]triazolo[4,3-a]quinazolin-5(4H)-one]: the “Cellular CNG Assay” value in the experiment on PDE4 is given as “+ (+indicates Activity ≧ 50% at 10 μM)”. For the same compound, the inhibition at 10 µM at PDE4B is not below 50%.

With `COc1ccccc1Cn1c(=O)c2cccnc2n(Cc2ccccc2F)c1=O` [Example 27, 1-(2-Fluorobenzyl)-3-(2-methoxybenzyl)pyrido[2,3-d]pyrimidine-2,4(1H,3H)-dione], the “Cellular CNG Assay” value with PDE4 is on record as “+ (+indicates Activity ≧ 50% at 10 μM)”. Moreover, the inhibition at 10 µM at PDE4B is not below 50%.

Take `C/C(NCCO)=C1\C(=O)N(c2nc3ccccc3s2)N=C1c1ccccc1` [Example 28, (E)-1-(Benzo[d]thiazol-2-yl)-4-(1-(2-hydroxyethylamino)ethylidene)-3-phenyl-1H-pyrazol-5(4H)-one]: the “Cellular CNG Assay” value in the experiment with PDE4 was “+ (+indicates Activity ≧ 50% at 10 μM)”. In addition, the inhibition at 10 µM at PDE4B is not below 50%.

In the case of `CCOC(=O)C1=C(C)N(CC(C)C)C(=O)/C1=C\c1ccc(OC)c(OC)c1` [Example 29, (Z)-Ethyl 4-(3,4-dimethoxybenzylidene)-1-isobutyl-2-methyl-5-oxo-4,5-dihydro-1H-pyrrole-3-carboxylate], the “Cellular CNG Assay” value in the experiment with PDE4 was “+ (+indicates Activity ≧ 50% at 10 μM)”. Further, the inhibition at 10 µM at PDE4B was not below 50%.

As to `COc1ccc(C2CNC(=O)C2)cc1OC1CCCC1` (centres unmarked) [rolipram], the IC50 in the experiment with recombinant human PDE4 was approximately 200 nM.

Values taken from US20090275586A1, “HETEROCYCLIC INHIBITORS OF PDE4” (KALYPSYS, INC., priority 2006, published 2009).
